System: malignant melanoma cell strains (P39) tumor
Experiment: Heterotransplantation of malignant melanoma cells in nude mice; PCNA and CD31 staining of the excised tumor
Type: in vivo, nude mice (Balb/c Jcl-nu)
Method: EMP9 was synthesized by a known method and dissolved in saline. The solution was colored with addition of Evans blue at the final concentration of 0.25%.
Five-week old nude mice (Balb/c Jcl-nu, Japan Clea Inc.) were purchased, maintained in a germfree chamber for a week for acclimatization and then used. 5×10^6 cells of malignant melanoma cell strains (P39, Utsumi and Elkind, 1993) were suspended in a culture solution (0.1 ml) and the suspension was injected subcutaneously interscapularly into the mice. After a few weeks, formation of tumor was observed on the outer skin surface. The major axis×minor axis×height of the tumor was measured twice a week. The tumor was observed until its size became 6×7×7 mm, thereafter administration was started. After the administration, the size of the tumor was measured in a similar manner.
Four doses of 0.1 ml of a 0.5 mg/ml EMP9 solution were administered intraperitoneally at intervals of 1 hr. After 24 hr and 48 hr, 0.1 ml of the solution was administered similarly 4 times, respectively. On the 7th day from the first administration, the tumor was excised.
The excised tumor was fixed in Zamboni fixing liquid or frozen in liquid nitrogen. The tumor fixed in Zamboni fixing liquid was divided into several tissue masses. The plural samples collected from the respective masses were embedded to prepare tissue sections thereof. The proliferating cells were stained using PCNA antibody and the vascular endothelial cells were stained using CD31 antibody, respectively. Hematoxylin was used for nuclear staining. Each of the section specimens was observed under a microscope at 200-fold magnification. The cell number in 20 compartments wherein one compartment has an area of 17.6×10^−3 mm^2 was counted (the cell number was not less than 4,500). The cell proliferation ratio was calculated from the following equation and represented in [Table 1]. Furthermore, the number of blood vessel in 100 compartments was counted, and the average number per a compartment (13.1×10^−2 mm^2) was calculated and represented in [Table 1]. […]

erythropoietin mimetic peptide 9 (GGTYSCHFAPLTWVCKPQGG) [EMP9, erythropoietin receptor antagonist]
Proliferation ratio (%) (P39 melanoma tumor in nude mice, 0.1 ml of 0.5 mg/ml EMP9 intraperitoneally 4 times at 1 hr intervals, repeated after 24 hr and 48 hr, tumor excised on 7th day, PCNA staining, proliferating cells/living cells x100): 3.03% | Inhibitory effects on tumor proliferation and neovascular proliferation (conclusion in words) (conclusion from Table 1, significant difference versus saline group (p<0.05)): superior inhibitory effects on both tumor proliferation and neovascular proliferation | Number of blood vessel (average ± standard error) (same regimen, CD31 staining, average number per compartment (13.1×10^−2 mm^2), 100 compartments counted): 0.64 ± 0.10

Source: patent US7053050B2, “Preventives/remedies for proliferative organ diseases chronic arthritic diseases, hypertrophic scar or keloid” (Yoshiko Yasuda, priority 2001, dated 2006)
